According to patent US11628146B2, “Estrogen receptor ligand treatment for neurodegenerative diseases” (The Regents of the University of California, priority 2014, dated 2023):
“Also recorded” adds a separate entry of the source.

Experiments:
[1] = test system: EAE in C57BL/6 mice; experiment: Standard EAE clinical score (0-5 scale), MOG 35-55 induced EAE, C57BL/6 mice; format: in vivo, mouse; design: key to Standard EAE Score: n.s. = not significant; *p < 0.05; ***p = 0.0004; ****p < 0.0001; n.i. = not informative; conditions: for Standard EAE Score: significance vs vehicle; for Standard EAE clinical score: vs miglyol vehicle
Text: Animals. C57BL/6 and NOD mice 8 weeks old were purchased from Jackson Laboratories (Bar Harbor, Me.). Animals were maintained under environmentally controlled conditions in a 12-hour light/dark cycle with access to food and water ad libitum. All procedures were done in accordance with the guidelines of the National Institutes of Health and the Chancellor's Animal Research Committee of the University of California, Los Angeles Office for the Protection of Research Subjects.
Reagents. AC-186 was dissolved in either Miglyol 812N liquid oil (Sasol North America) or sesame oil (Sigma Aldrich) as following concentration; 1.5 mg/mL for 3 mg/kg group, 5 mg/mL for 10 mg/kg group, and 15 mg/mL for 30 mg/kg group. Diarylpropionitrile (DPN, Tocris Biosciences) was dissolved in 10% molecular-grade ethanol and diluted with 90% of either Miglyol 812N liquid oil or sesame oil.
EAE and Treatments. Animals were injected subcutaneously with Myelin Oligodendrocyte Glycoprotein (MOG), amino acids 35-55 (200 μg/animal, American Peptides), emulsified in complete Freund's adjuvant (CFA) and supplemented with Mycobacterium tuberculosis H37ra (300 μg/animal, Difco Laboratories), over two sites drained by left inguinal and auxiliary lymph nodes in a total volume of 0.1 ml/mouse. One week later, a booster immunization was delivered over contra lateral lymph nodes. Pertussis toxin (500 ng/mouse) (List Biological Laboratories, Inc.) was injected intraperitoneally on days 0 and 2. Animals were monitored daily for EAE signs based on a standard EAE 0-5 scale scoring system: 0—healthy, 1—complete loss of tail tonicity, 2—loss of righting reflex, 3—partial paralysis, 4—complete paralysis of one or both hind limbs, and 5—moribund. Animals received 0.05 ml of either of 1.5, 5, 15 mg/mL AC-186, vehicle (sesame oil or Miglyol 812N liquid oil), or DPN (8 mg/kg/day) via subcutaneous injections every other day. Animals were treated with AC-186 or vehicle after EAE induction. Specifically, treatment was initiated at the first clear signs of clinical disease (EAE day 13-15), and continued to the endpoint of the experiment.

[2] = test system: spinal cords of C57BL/6 females with EAE; experiment: Spinal cord neuropathology (immunohistochemistry) in EAE; format: in vivo, mouse; conditions: vs vehicle treated EAE
Procedure: Histological Preparation. Mice were exposed to a lethal dose of isoflurane and perfused transcardially with ice-cold 1×PBS for 8-15 min, followed by 10% formalin for 10-15 min. Spinal cords and brains were dissected and submerged in 10% formalin overnight at 4° C., followed by 30% sucrose in PBS for 24 h. Tissues were embedded in […] solution for cryostat sectioning then post-fixed overnight in 10% formalin and cryoprotected in 30% sucrose. The embedded tissues were stored in −80° C. after flash frozen in dry ice. 40 μm thick free-floating spinal cord cross-sections, and sagittal brain sections were obtained with a microtome b cryostat (model HM505E) at −20° C. Tissues were collected serially and stored in 1×PBS with 1% sodium azide in 4° C. until immunohistochemistry.
Immunofluorescence. Prior to histological staining, […] free-floating sections were thoroughly washed with 1×PBS to remove residual sodium azide. In the case of anti-MBP labeling, tissue sections were processed with an additional 1 hour incubation with 5% glacial acetic acid in 100-proof ethanol at room temperature (RT). After washing tissue sections were permeabilized with 0.3% TritonX-100 and 2% normal goat serum in 1×PBS for 30 minutes at room temperature and blocked with 10% normal goat serum in 1×PBS for 1 hour. Tissues were then incubated with primary antibodies overnight in 4° C. The following primary antibody (Ab) were used: Rat anti-MBP (Millipore) at 1:1000 dilutions, Rabbit anti-NF200 (Sigma Aldrich) at 1:750 dilutions, Rabbit anti-beta-APP (Life Technologies) at 1:200 dilutions, Mouse anti-NeuN at 1:1000 dilutions (Millipore), Rabbit anti-PSD95, and Rabbit anti-Synapsin 1 at 1:500 dilutions (Millipore), and Rat anti-CD45 at 1:1500 dilutions (Millipore). The next day tissues were washed and incubated with secondary antibodies conjugated to Cy5 or Cy3 (Millipore) for 1 hour at room temperature. A nuclear stain DAPI (2 ng/mL; Molecular Probes) was added 10 minutes prior to final washes after secondary Ab incubation. Sections were mounted on slides, allowed to semi-dry, and cover slipped in fluoromount G (Fisher Scientific). IgG-control experiments were performed for all primary Ab, and only non-immunoreactive tissues under these conditions were analyzed.
Chromagen Immunohistochemistry. […] Tissues were then incubated with primary antibodies overnight in 4° C. The following primary antibodies were used: Rat anti-CD3 at 1:2000 dilutions (BD Pharmingen), anti-Calbindin D28K at 1:1000 dilutions (Millipore), and Rabbit anti-Iba1 at 1:10000 dilutions (Wako Chemicals), were added for 2 hour at room temperature, and then placed in 4° C. overnight. Tissue sections then followed with secondary Ab labeling at 1:1000 dilutions (Vector labs) for 1 hour at room temperature and then with Avidin-Biotin Conjugation solution (Vector Labs) for 1 hour at room temperature. Tissue sections were treated with DAB peroxidase substrate (Vector labs) according to manufacturer instructions. IgG-control experiments were performed for all primary Ab, and only non-immunoreactive tissues under these conditions were analyzed.
Microscopy and Quantification. Three spinal cord cross-sections at the C5-12 level from each mouse (n=3-6) were captured under microscope at 10× magnification. To quantify demyelination in the spinal cord and cerebellum, white matter was manually delineated on the basis of DAPI staining, and MBP staining intensity was calculated and reported in the sampled area. Axonal damage was assessed by counting beta-APP^+ cells in a confocal 10× microscope in spinal cord. Axonal densities were calculated by counting the number of NF200^+ or NeuN^+ neuronal cells in a 10× confocal image in the sampled area of the captured tissue section. Cerebellar Purkinje (Calbindin^+) cells were manually counted using a brightfield 10× microscope over the entire sagittal cerebellum. […]

[3] = 10 mg/kg every other day in miglyol, EAE day 60
[4] = 30 mg/kg every other day in miglyol

Q: `Oc1ccc(C2(c3ccccc3F)CCC(F)(F)CC2)cc1` [AC-186] was tested. Which “Standard EAE Score” value ([1]; C57BL/6 F, AC186 3 mg/kg, sesame vehicle) did it give?
A: n.s.

Q: What about the “Standard EAE Score” value ([1]; C57BL/6 F, AC186 10 mg/kg, miglylol vehicle) of the same compound?
A: **** (less robust that 30 mg/kg) (****p < 0.0001)

Q: And the “Standard EAE Score” value ([1]; C57BL/6 F, AC186 10 mg/kg, sesame vehicle)?
A: n.s.

Q: What about the “Standard EAE Score” value ([1]; C57BL/6 F, AC186 30 mg/kg, miglylol vehicle) of the same compound?
A: **** (****p < 0.0001)

Q: And the “Standard EAE Score” value ([1]; C57BL/6 F, AC186 30 mg/kg, sesame vehicle)?
A: * (*p < 0.05)

Q: What about the “Standard EAE Score” value ([1]; C57BL/6 M, AC186 30 mg/kg, miglylol vehicle) of the same compound?
A: **** (****p < 0.0001)

Q: What about the “Standard EAE Score” value ([1]; C57BL/6 M, AC186 30 mg/kg, sesame vehicle) of the same compound?
A: n.s.

Q: What about the EAE score ([1]; female C57BL/6, 3 mg/kg s.c. every other day in sesame oil, vs vehicle) of the same compound?
A: no effect on the EAE score

Q: What about the “Standard EAE clinical score” value ([1]; female C57BL/6, 10 mg/kg in miglyol) of the same compound?
A: significant efficacy in ameliorating the standard EAE clinical scores; also recorded: ameliorated

Q: And the EAE score ([1]; female C57BL/6, 10 mg/kg s.c. every other day in sesame oil, vs vehicle)?
A: a trend toward improvement

Q: What about the “Standard EAE clinical score” value ([1]; female C57BL/6, 30 mg/kg in miglyol) of the same compound?
A: significant efficacy in ameliorating the standard EAE clinical scores; also recorded: beneficial effects; also recorded: ameliorated

Q: And the EAE score ([1]; female C57BL/6, 30 mg/kg s.c. every other day in sesame oil, from first clinical signs, vs vehicle)?
A: a significant effect in ameliorating standard EAE clinical scores; also recorded: displayed the best EAE score; also recorded: significantly less severe EAE scores

Q: And the EAE score ([1]; male C57BL/6, 30 mg/kg in miglyol, vs miglyol alone)?
A: performed significantly better; also recorded: better EAE scores

Q: And the EAE score ([1]; male C57BL/6, 30 mg/kg in sesame oil, vs sesame oil alone)?
A: did not perform significantly better; also recorded: did not display efficacy

Q: What about the “Axonal densities / axon numbers (NF200), spinal cord” value [2, 3] of the same compound?
A: Neuroprotective effects; also recorded: significantly more axon numbers

Q: What about the “Myelin staining intensity (MBP), spinal cord” value [2, 3] of the same compound?
A: a trend for somewhat higher MBP staining intensity

Q: And the “beta-APP expression (axonal damage), spinal cord” value [2, 3]?
A: Neuroprotective effects; also recorded: a trend of less beta-APP staining

Q: And the “CD3 stained cells (T lymphocytes), spinal cord” value ([2]; 10 mg/kg in miglyol)?
A: neither AC-186 dose affected levels of CD3 staining; also recorded: no differences in the number of CD3 stained cells

Q: What about the “CD45 immunoreactivity (all immune cells), spinal cord” value ([2]; 10 mg/kg in miglyol) of the same compound?
A: reduced CD45 staining; also recorded: a reduction of CD45 expression

Q: What about the “Iba-1 globoid cells (macrophage like cells), spinal cord” value ([2]; 10 mg/kg in miglyol) of the same compound?
A: reduced Iba-1 globoid cell staining; also recorded: a significant reduction in the number of Iba-1 stained cells with globoid morphology

Q: What about the “Axonal densities / axon numbers (NF200), spinal cord” value [2, 4] of the same compound?
A: significantly preserved axon numbers; also recorded: sparing of axons and myelin; also recorded: significantly more axon numbers

Q: What about the “Myelin staining intensity (MBP), spinal cord” value [2, 4] of the same compound?
A: a trend for sparing myelin; also recorded: observed as significant; also recorded: a trend for somewhat higher MBP staining intensity

Q: What about the “beta-APP expression (axonal damage), spinal cord” value [2, 4] of the same compound?
A: reduced axonal damage; also recorded: significantly less expression of beta-APP

Q: What about the “CD3 stained cells (T lymphocytes), spinal cord” value ([2]; 30 mg/kg in miglyol) of the same compound?
A: neither AC-186 dose affected levels of CD3 staining; also recorded: no differences in the number of CD3 stained cells

Q: What about the “CD45 immunoreactivity (all immune cells), spinal cord” value ([2]; 30 mg/kg in miglyol) of the same compound?
A: reduced CD45 staining; also recorded: lowering CD45 and Iba-1; also recorded: a reduction of CD45 expression

Q: What about the “Iba-1 globoid cells (macrophage like cells), spinal cord” value ([2]; 30 mg/kg in miglyol) of the same compound?
A: reduced Iba-1 globoid cell staining; also recorded: lowering CD45 and Iba-1; also recorded: a significant reduction in the number of Iba-1 stained cells with globoid morphology
